Reference: patent US7189691B2, “Methods and compositions for treating leukemia” (The Administrators of the Tulane Educational Fund, priority 2004, dated 2007)
Converted amounts (≈) assume the structure as drawn. Where two headings read alike, the source gives them in different places.

Tests used:
[1] = target: T1, AF4-AF9 protein complexes (Homo sapiens, UniProt P42568); experiment: Co-localization of GFP-AF4R1 3A- and RFP-AF9 in transfected NIH-3T3 cells; type: cell-based, mouse; details: overnight
T1 construct: expressed in transfected cells; host or cells: NIH-3T3
T1 sequence (P42568 1-568): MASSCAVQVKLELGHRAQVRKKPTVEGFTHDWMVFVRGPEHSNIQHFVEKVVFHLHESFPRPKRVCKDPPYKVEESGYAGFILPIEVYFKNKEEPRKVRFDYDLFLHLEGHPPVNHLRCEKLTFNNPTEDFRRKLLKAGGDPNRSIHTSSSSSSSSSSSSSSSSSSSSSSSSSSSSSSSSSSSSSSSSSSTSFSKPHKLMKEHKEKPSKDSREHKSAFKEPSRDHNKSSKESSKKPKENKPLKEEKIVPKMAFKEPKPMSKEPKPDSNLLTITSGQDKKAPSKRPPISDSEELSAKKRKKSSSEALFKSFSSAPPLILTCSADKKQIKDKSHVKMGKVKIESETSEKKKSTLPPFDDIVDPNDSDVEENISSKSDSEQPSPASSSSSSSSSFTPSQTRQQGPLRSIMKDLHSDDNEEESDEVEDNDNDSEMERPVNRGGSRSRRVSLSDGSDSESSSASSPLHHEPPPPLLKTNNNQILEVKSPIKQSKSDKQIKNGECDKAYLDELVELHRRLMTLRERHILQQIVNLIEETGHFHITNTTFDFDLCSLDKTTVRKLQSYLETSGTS
Experimental: To determine whether PFWT disrupts AF4-AF9 protein complexes in living cells, the properties of a fragment of mouse AF4 protein encompassing amino acids 623–811 (SEQ ID NO: 115) was used. The entire murine AF4 sequence can be obtained from the NCBI database at Accession Number AAD08668.
To test whether disruption of the AF4-AF9 interaction by PFWT results in delocalization of AF4R1 3A- from the nucleus to the cytoplasm even when co-expressed with exogenous AF9, the following assay was performed.
An enhanced green fluorescent protein (GFP) expression vector encoding mouse AF4 amino acids 623–811 SEQ ID NO: 115 (pEGFP-AF4R1 3A-), and a red fluorescent protein (RFP)-tagged AF9 expression vector were produced as described (Erfurth, F., et al., 2004, cited above; Srinivasan 2003, cited above; Hemenway, C. S., et al., 2001, cited above). NIH-3T3 cells were grown in chamber slides containing DMEM supplemented with 1-glutamine, 1% non-essential amino acids, 1% sodium pyruvate, 10% calf serum, and antibiotics. Cells were then transiently transfected with the expression vectors expressing fluorescent protein-tagged AF4 and AF9 using Lipofectamine™ 2000 reagent (Invitrogen). After 24 h the cells were treated with the peptides PFWT or PFmut at a concentration of 25 or 50 μg/ml and incubated overnight.
Cells on chamber slides were washed in PBS, fixed with 3% paraformaldehyde for 15 minutes, treated with 300 nM 4′,6-Diamidino-2-phenyindole (DAPI) nuclear counterstain for 5 minutes, and mounted with coverslips using Prolong™ media (Molecular Probes). Slides were visualized by deconvolution fluorescence microscopy with a Leica DMRXA upright microscope (Meyer Instruments) equipped with a Sensicam™ QE CCD digital camera (Cooke Corporation) and filter sets for both EGFP (exciter HQ480/20, dichroic Q495LP, and emitter HQ510/20m) and RFP (exciter 560/55x, dichroic Q595LP, and emitter HQ645/75m). Images were captured, deconvolved, and analyzed with Slidebook™ software (Intelligent Imaging Innovations).
Image analysis entailed a pixel correlation algorithm between the EGFP and RFP fluorescence channels within each image through creation of a digital binary overlay (thresholding) over arbitrary regions in both channels. This statistical measurement determines the degree in which two pixels in an image correspond to one another. If the trend in number of pixels in both EGFP and RFP channels overlap or co-localize entirely (i.e., perfect pixel set correlation), they have an assigned correlation measurement of 1.0.

MOLT-4 = experiment: Annexin-V/PI binding assay (flow cytometry); type: cell-based; details: MOLT-4, 50 μg/ml
Experimental: (§1) To test the possibility that growth inhibition of t(4;11) leukemia cells exposed to PFWT is the result of apoptotic cell death, annexin-V labeling of the cell membrane of the leukemic cells examined in Example 5 was used to assess apoptosis as follows (Koopman, G., et al., Blood 1994 84: 1415–1420.). Annexin V binding assays were carried out using a Vibrant™ apoptosis kit (Molecular Probes). […] For annexin V-propidium iodide (PI) staining, cells were harvested, washed once with PBS and resuspended in 100 μl annexin binding buffer. 5 μl annexin V conjugated to Alexa Fluor 488 and 2 μl of 100 μg/ml PI were added to the cell suspension and incubated at room temperature for 15 minutes. The cells were then washed once in annexin binding buffer and resuspended in 400 μl annexin binding buffer. These samples were then analyzed by flow cytometry using Coulter benchtop flow cytometer. The cells were excited by a 488 nm wavelength laser beam and the emission was measured using a 530 nm filter for annexin V and a 575 nm filter for PI.

MV4-11 = experiment: Annexin-V/PI binding assay (flow cytometry); type: cell-based; details: MV4-11, 50 μg/ml
Experimental: as §1

RS4;11 = experiment: Annexin-V/PI binding assay (flow cytometry); type: cell-based; details: RS4;11, 50 μg/ml
Experimental: as §1

Solubility = type: physicochemical
Experimental: PFWT and PFmut are soluble in phosphate buffered saline (PBS) at a concentration of 1 mg/ml and in dimethylsulfoxide (DMSO) at >50 mg/ml (data not shown). In the initial experiments, peptides were dissolved in PBS but were dissolved in DMSO for the majority of the subsequent experiments.

B1 cells = experiment: Cell cycle analysis (PI DNA staining, flow cytometry); type: cell-based; details: for proportion of cells in G1 / proportion of cells in G2 / proportion of cells in S: G1:S:G2 ratio
Experimental: Leukemia cells were subjected to cell cycle analyses using a Cellular DNA flow cytrometric analysis kit (Roche) according to manufacturers' protocols to determine if PFWT might also induce cell cycle arrest. B1 cells were treated with peptides as outlined above and fixed. For DNA staining, cells were harvested and washed and resuspended with PBS at a concentration of 10^6 cells/ml. 1 unit/ml of RNase and 50 μg/mI of PI was added to this suspension and incubated at 37° C. for 1 hr and analyzed by flow cytometry using Coulter benchtop flow cytometer.

[2] = dimethylsulfoxide (DMSO), read-out: solubility in dimethylsulfoxide (DMSO)
[3] = phosphate buffered saline (PBS), read-out: solubility in phosphate buffered saline (PBS)

SMILES	localization of GFP-AF4R1 3A- relative to RFP-AF9 ([1]; 25 μg/ml)	pixel correlation between EGFP and RFP channels ([1]; 25 μg/ml)	localization of GFP-AF4R1 3A- relative to RFP-AF9 ([1]; 50 μg/ml)	pixel correlation between EGFP and RFP channels ([1]; 50 μg/ml)	% Total apoptotic cells (MOLT-4)	% early apoptotic cells (MOLT-4)	% Total apoptotic cells (MV4-11)	% early apoptotic cells (MV4-11)	% Total apoptotic cells (RS4;11)	% early apoptotic cells (RS4;11)	solubility (Solubility; [2])	solubility (Solubility; [3])	sub-G1 population (of all events) (B1 cells)	proportion of cells in G1 (B1 cells)	proportion of cells in G2 (B1 cells)	proportion of cells in S (B1 cells)
CC[C@H](C)[C@H](NC(=O)[C@H](CCCCN)NC(=O)[C@@H](NC(=O)[C@H](Cc1c[nH]c2ccccc12)NC(=O)[C@H](CC(C)C)NC(=O)[C@H](CCCCN)NC(=O)[C@H](CCCCN)NC(=O)[C@H](Cc1c[nH]c2ccccc12)NC(=O)[C@H](CCCCN)NC(=O)[C@H](CCSC)NC(=O)[C@H](CCCNC(=N)N)NC(=O)[C@H](CCCNC(=N)N)NC(=O)[C@H](CC(N)=O)NC(=O)[C@H](CCC(N)=O)NC(=O)[C@H](Cc1ccccc1)NC(=O)[C@H](Cc1c[nH]c2ccccc12)NC(=O)[C@H](CCCCN)NC(=O)[C@@H](NC(=O)[C@H](CCC(N)=O)NC(=O)[C@@H](N)CCCNC(=N)N)[C@@H](C)CC)C(C)C)C(=O)N[C@@H](CC(=O)O)C(=O)N[C@@H](CC(C)C)C(=O)N[C@@H](CC(=O)O)C(=O)N[C@@H](CC(C)C)C(=O)N[C@@H](CC(C)C)C(=O)N[C@@H](CO)C(=O)N[C@@H](CCCNC(=N)N)C(=O)N[C@H](C(=O)N1CCC[C@H]1C(=O)O)C(C)C [PFWT]	partially delocalizes or is displaced from RFP-AF9	negative correlation value	little or no GFP-AF4R1 3A- remains in the nucleus	negatively correlated	18.8%	11.64%	45.3%	28.42%	34.64%	26.18%	> 50 mg/mL	1 mg/mL (≈ 264 µM)	51%	47	8	45
CC[C@H](C)[C@H](NC(=O)[C@H](CCC(N)=O)NC(=O)[C@@H](N)CCCNC(=N)N)C(=O)N[C@@H](CCCCN)C(=O)N[C@@H](Cc1c[nH]c2ccccc12)C(=O)N[C@@H](Cc1ccccc1)C(=O)N[C@@H](CCC(N)=O)C(=O)N[C@@H](CC(N)=O)C(=O)N[C@@H](CCCNC(=N)N)C(=O)N[C@@H](CCCNC(=N)N)C(=O)N[C@@H](CCSC)C(=O)N[C@@H](CCCCN)C(=O)N[C@@H](Cc1c[nH]c2ccccc12)C(=O)N[C@@H](CCCCN)C(=O)N[C@@H](CCCCN)C(=O)N[C@@H](CC(C)C)C(=O)N[C@@H](Cc1c[nH]c2ccccc12)C(=O)N[C@@H](CCC(=O)O)C(=O)N[C@@H](CCCCN)C(=O)N[C@@H](CO)C(=O)N[C@@H](CC(=O)O)C(=O)N[C@@H](CC(C)C)C(=O)N[C@@H](CC(=O)O)C(=O)N[C@@H](CC(C)C)C(=O)N[C@@H](CC(C)C)C(=O)N[C@@H](CO)C(=O)N[C@@H](CCCNC(=N)N)C(=O)N[C@H](C(=O)N1CCC[C@H]1C(=O)O)C(C)C [PFmut]	no observable effect	significantly positively correlated	displaces some GFP-AF4R1 3A- from RFP-AF9 into the cytoplasm	strongly positively correlated	6.64%	1.36%	23.16%	8.26%	7.22%	1.36%	> 50 mg/mL	1 mg/mL (≈ 264 µM)		52	8	40
